We go through 15 molecules from ChEMBL document CHEMBL3817803, “Design, Synthesis, and Evaluation of Donepezil-Like Compounds as AChE and BACE-1 Inhibitors” (ACS Med Chem Lett, 2016).

pIC50, pKi: −log10 of the molar value. Active and inactive are the calls of the source. No cut-off for these calls is given here.

In assay [1] the target is T1, Acetylcholinesterase (Homo sapiens, UniProt P22303).
Description: Mixed inhibition of human erythrocytes AchE using acetylthiocholine iodide as substrate incubated for 20 mins by Lineweaver-Burk plot analysis
Assay [2] addresses T2, Cholinesterase (Equus caballus, UniProt P81908). Briefly: Inhibition of horse serum BuChE using butyrylthiocoline iodide as substrate incubated for 20 mins by Ellman method. A general note: Ellman's reagent forms a yellow product with free thiols.
Assay [3] deals with T1, Acetylcholinesterase. Kind of assay: Inhibition of human erythrocytes AchE using acetylthiocholine iodide as substrate incubated for 20 mins by Ellman method.
A further assay deals with Beta-secretase 1 (Mus musculus, UniProt P56818). Kind of assay: Inhibition of mouse BACE-1 preincubated for 10 mins followed by fluorescent peptide substrate addition measured for 30 mins by fluorescence plate reader method.
For assay [4], the target named is Beta-secretase 1 (Mus musculus) (UniProt P56818). Briefly: Inhibition of mouse BACE-1 at 1 uM preincubated for 10 mins followed by fluorescent peptide substrate addition measured for 30 mins by fluorescence plate reader method.
Assay [5] is described as follows: Selectivity ratio of IC50 for horse serum BuChE to IC50 for human erythrocytes AchE.
For assay [6], the target named is T2, Cholinesterase. Briefly: Non-competitive inhibition of horse serum BuChE using butyrylthiocoline iodide as substrate incubated for 20 mins by Lineweaver-Burk plot analysis.
For assay [7], the target named is Cholinesterase (Equus caballus) (UniProt P81908). Kind of assay: Inhibition of horse serum BuChE using butyrylthiocoline iodide as substrate at 2 uM preincubated for 20 mins followed by 100 fold dilution by Ellman method.
Assay [8] has the same target. Kind of assay: Inhibition of horse serum BuChE using butyrylthiocholine iodide as substrate at 2 uM incubated for 20 mins by Ellman method.
The nature of assay [9]: Selectivity ratio of Ki for horse serum BuChE to Ki for human erythrocytes AchE.
The target of assay [10] is T1, Acetylcholinesterase. Kind of assay: Non-competitive inhibition of human erythrocytes AchE using acetylthiocholine iodide as substrate incubated for 20 mins by Lineweaver-Burk plot analysis.
For assay [11], the target named is T2, Cholinesterase. Briefly: Mixed inhibition of horse serum BuChE using butyrylthiocoline iodide as substrate incubated for 20 mins by Lineweaver-Burk plot analysis.

Cholinesterase (Equus caballus), sequence (P81908 whole entry): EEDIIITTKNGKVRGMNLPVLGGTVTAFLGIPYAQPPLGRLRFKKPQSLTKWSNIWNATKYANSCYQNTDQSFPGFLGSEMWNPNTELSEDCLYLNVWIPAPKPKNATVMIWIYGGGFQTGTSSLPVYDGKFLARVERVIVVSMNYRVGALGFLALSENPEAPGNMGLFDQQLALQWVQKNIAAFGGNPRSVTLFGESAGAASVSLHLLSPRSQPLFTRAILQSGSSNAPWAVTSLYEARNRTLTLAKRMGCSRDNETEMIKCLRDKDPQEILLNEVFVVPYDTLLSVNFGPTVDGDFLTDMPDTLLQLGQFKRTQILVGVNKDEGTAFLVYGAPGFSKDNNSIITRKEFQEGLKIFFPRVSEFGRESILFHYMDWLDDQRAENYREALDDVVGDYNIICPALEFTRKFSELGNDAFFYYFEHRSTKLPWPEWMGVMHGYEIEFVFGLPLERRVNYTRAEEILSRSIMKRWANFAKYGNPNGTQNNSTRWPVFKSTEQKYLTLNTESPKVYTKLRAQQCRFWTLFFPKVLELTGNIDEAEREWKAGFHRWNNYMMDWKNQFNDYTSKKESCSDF
T2 sequence (P81908 whole entry): as above
T1 sequence (P22303 whole entry): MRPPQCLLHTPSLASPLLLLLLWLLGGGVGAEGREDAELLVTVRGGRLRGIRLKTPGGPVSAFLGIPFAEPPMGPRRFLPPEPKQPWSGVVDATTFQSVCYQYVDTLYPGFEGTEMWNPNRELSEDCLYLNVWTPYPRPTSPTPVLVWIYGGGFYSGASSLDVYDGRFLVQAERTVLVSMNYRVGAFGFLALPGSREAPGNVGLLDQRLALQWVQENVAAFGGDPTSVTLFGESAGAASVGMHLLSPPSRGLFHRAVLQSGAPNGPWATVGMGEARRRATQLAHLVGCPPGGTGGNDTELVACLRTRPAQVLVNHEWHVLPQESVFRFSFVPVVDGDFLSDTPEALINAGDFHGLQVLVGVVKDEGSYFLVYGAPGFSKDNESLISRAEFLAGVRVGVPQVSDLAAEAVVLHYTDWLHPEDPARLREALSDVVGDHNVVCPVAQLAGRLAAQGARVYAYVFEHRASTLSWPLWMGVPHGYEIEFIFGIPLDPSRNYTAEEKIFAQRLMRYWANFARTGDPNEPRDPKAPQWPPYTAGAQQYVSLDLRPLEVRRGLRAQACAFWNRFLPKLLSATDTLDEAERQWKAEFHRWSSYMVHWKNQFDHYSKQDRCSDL
Beta-secretase 1 (Mus musculus), sequence (P56818 whole entry): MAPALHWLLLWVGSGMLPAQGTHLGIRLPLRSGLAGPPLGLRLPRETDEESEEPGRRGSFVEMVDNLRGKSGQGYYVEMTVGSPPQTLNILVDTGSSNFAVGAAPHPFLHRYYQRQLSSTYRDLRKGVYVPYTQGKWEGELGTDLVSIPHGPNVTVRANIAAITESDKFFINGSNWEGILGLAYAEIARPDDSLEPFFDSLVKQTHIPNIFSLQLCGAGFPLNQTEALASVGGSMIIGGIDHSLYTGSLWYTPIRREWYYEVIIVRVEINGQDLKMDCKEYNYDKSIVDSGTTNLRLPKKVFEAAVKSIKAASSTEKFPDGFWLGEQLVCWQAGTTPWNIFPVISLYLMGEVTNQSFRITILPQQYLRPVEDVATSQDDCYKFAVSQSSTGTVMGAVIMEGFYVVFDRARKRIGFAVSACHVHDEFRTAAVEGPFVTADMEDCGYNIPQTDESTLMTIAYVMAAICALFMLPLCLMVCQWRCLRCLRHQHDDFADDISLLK
Beta-secretase 1, sequence (P56818 whole entry): as above

For the molecule `O=C1/C(=C/C2CCN(Cc3ccccc3)CC2)Cc2cc3c(cc21)OCO3`, the pKi on Acetylcholinesterase [1] is 6.01; at Cholinesterase [6], 5.14. Further, the values for the pIC50 against Cholinesterase [2], against Acetylcholinesterase [3] and against Beta-secretase 1 were 4.82, 6.12 and more than 6.00, respectively. Further, the inhibition result in [4] and in assay [7] was “Active” throughout. The Ratio IC50 in [5] is 20. For the same molecule, in assay [8], the inhibition result is “inactive”. In assay [9], the Ratio Ki was determined as 7.
Take `COc1ccc2c(c1)C/C(=C\C1CCN(Cc3ccccc3)CC1)C2=O`: the pKi is 7.54 at Acetylcholinesterase [10] and 5.50 on Cholinesterase [6]. The pIC50 against Cholinesterase [2] is 5.24; on Acetylcholinesterase [3], 7.37; against Beta-secretase 1 it was more than 6.00. The inhibition entry in assay [4] and in assay [7] was “Active” each time. For the same molecule, the Ratio IC50 in assay [5] was 132. For the same molecule, the inhibition entry in assay [8] was “inactive”. Also, the Ratio Ki in [9] was found to be 110.
Consider `COc1cccc(CN2CCC(/C=C3\Cc4cc(OC)ccc4C3=O)CC2)c1`, for which the figures for the pKi at Acetylcholinesterase [10] and at Cholinesterase [6] were 6.26 and 5.46, respectively. Further, the results for the pIC50 on Cholinesterase [2], against Acetylcholinesterase [3] and at Beta-secretase 1 were 5.66, 6.07 and more than 6.00, respectively. Further, the inhibition entry in [4] and in assay [7] was “Active” in each case. The Ratio IC50 in assay [5] amounted to 3. In addition, the inhibition result in [8] was “inactive”. Moreover, the Ratio Ki in assay [9] stood at 6.
Turning to `O=C1/C(=C/C2CCN(Cc3ccccc3)CC2)Cc2ccc(O)cc21`, the figures for the pKi at Acetylcholinesterase [10] and on Cholinesterase [6] were 5.37 and 5.25, respectively. Further, the pIC50 against Cholinesterase [2] was 5.24; against Acetylcholinesterase [3] it was 5.82. In assay [5], the Ratio IC50 was 4. The inhibition entry in assay [7] is “Active”. Further, in assay [8], the inhibition result was “inactive”. Besides, in assay [9], the Ratio Ki is 1.
For the molecule `O=C1/C(=C/C2CCN(Cc3ccccc3)CC2)Cc2cccc(O)c21`, the pKi on Acetylcholinesterase [10] was 6.45; at Cholinesterase [11] it was 5.19. Also, the pIC50 against Cholinesterase [2] was 5.32; at Acetylcholinesterase [3] it was 6.20; against Beta-secretase 1, more than 6.00. The inhibition entry in assay [4] and in assay [7] was “Active” in each case. Besides, the Ratio IC50 in assay [5] came to 7. The inhibition result in assay [8] was “inactive”. In addition, the Ratio Ki in [9] is 18.
Consider `COc1cc2c(cc1O)C(=O)/C(=C/C1CCN(Cc3ccccc3)CC1)C2`, for which the pKi on Acetylcholinesterase [10] was 5.55; on Cholinesterase [6], 4.97. Moreover, the pIC50 is 5.13 at Cholinesterase [2] and 5.81 on Acetylcholinesterase [3]. Further, the Ratio IC50 in assay [5] came to 5. Moreover, the inhibition result in [7] was “Active”. In assay [8], the inhibition entry is “inactive”. The Ratio Ki in assay [9] came to 4.
As to `COc1cccc2c1C(=O)/C(=C/C1CCN(Cc3ccc4c(c3)OCO4)CC1)C2`, the pIC50 against Cholinesterase [2] was 5.32. Besides, the inhibition entry in assay [4] and in assay [8] was “inactive” throughout. On Cholinesterase [6], this molecule showed a pKi of 5.19. Moreover, the inhibition entry in assay [7] is “Active”.
In the case of `COc1cc2c(cc1O)C/C(=C\C1CCN(Cc3ccccc3)CC1)C2=O`, the pKi was 5.55 on Acetylcholinesterase [10] and 4.97 on Cholinesterase [6]. In addition, the pIC50 is 5.13 on Cholinesterase [2] and 5.81 on Acetylcholinesterase [3]. Moreover, the Ratio IC50 in [5] stood at 5. Also, the inhibition entry in assay [7] is “Active”. In addition, the inhibition result in assay [8] is “inactive”. Moreover, in assay [9], the Ratio Ki was 4.
For `COc1cccc2c1C(=O)/C(=C/C1CCN(Cc3ccccc3)CC1)C2`, the pKi at Acetylcholinesterase [10] is 5.74; at Cholinesterase [11], 5.51. Besides, the pIC50 at Cholinesterase [2] was 5.94; against Acetylcholinesterase [3], 5.82. Besides, the Ratio IC50 in [5] is 1. Moreover, in assay [7], the inhibition entry is “Active”. The inhibition result in assay [8] was “inactive”. The Ratio Ki in assay [9] was determined as 2.
`COc1cccc(CN2CCC(/C=C3\Cc4cccc(OC)c4C3=O)CC2)c1`: the values for the pKi at Acetylcholinesterase [10] and on Cholinesterase [6] were 4.76 and 5.62, respectively. The pIC50 was 5.27 at Cholinesterase [2] and 4.92 on Acetylcholinesterase [3]. In [5], the Ratio IC50 is less than 1. In addition, the inhibition entry in assay [7] is “Active”. Moreover, the inhibition entry in assay [8] was “inactive”. The Ratio Ki in assay [9] is less than 1.
At Cholinesterase [2], `COc1ccc2c(c1)C(=O)/C(=C/C1CCN(Cc3ccc4c(c3)OCO4)CC1)C2` gave a pIC50 of 5.01. For the same molecule, the inhibition entry in assay [4] and in assay [8] was “inactive” throughout. This molecule also gave a pKi at Cholinesterase [6] of 5.36. Besides, the inhibition entry in assay [7] was “Active”.
Turning to `O=C1/C(=C/C2CCN(Cc3ccccc3)CC2)Cc2cc(O)ccc21`, the pKi on Acetylcholinesterase [10] is 5.70; on Cholinesterase [11] it was 5.07. The pIC50 on Cholinesterase [2] was 5.12; at Acetylcholinesterase [3], 5.67; at Beta-secretase 1 it was more than 6.00. Also, the inhibition entry in [4] and in [7] was “Active” in each case. For the same molecule, the Ratio IC50 in [5] was found to be 4. In addition, the inhibition entry in [8] was “inactive”. Further, in assay [9], the Ratio Ki was 4.
Turning to `COc1cccc(CN2CCC(/C=C3\Cc4ccc(OC)cc4C3=O)CC2)c1`, the pKi at Acetylcholinesterase [10] was 3.92; at Cholinesterase [6], 5.41. The pIC50 against Cholinesterase [2] is 5.79; against Acetylcholinesterase [3], 4.46. Also, in assay [5], the Ratio IC50 is less than 1. In addition, the inhibition result in assay [7] is “Active”. Further, in assay [8], the inhibition result was “inactive”. Moreover, the Ratio Ki in [9] is less than 1.
Turning to `COc1ccc2c(c1)C(=O)/C(=C/C1CCN(Cc3ccccc3)CC1)C2`, the pKi at Acetylcholinesterase [10] is 6.59; on Cholinesterase [11], 5.94. In addition, the pIC50 is 5.58 on Cholinesterase [2] and 6.47 against Acetylcholinesterase [3]. In assay [5], the Ratio IC50 is 8. The inhibition result in [7] is “Active”. For the same molecule, the inhibition entry in [8] was “inactive”. Further, the Ratio Ki in [9] is 4.
As to `COc1cc2c(cc1OC)C(=O)/C(=C/C1CCN(Cc3ccccc3)CC1)C2`, the pKi on Acetylcholinesterase [10] is 7.46; at Cholinesterase [11] it was 5.61. Moreover, the pIC50 was 5.32 against Cholinesterase [2], 7.24 against Acetylcholinesterase [3] and more than 6.00 against Beta-secretase 1. In addition, the inhibition result in [4] and in [7] was “Active” each time. Moreover, the Ratio IC50 in [5] came out at 81. In addition, the inhibition result in assay [8] is “inactive”. In [9], the Ratio Ki came to 71.

As a reminder, the pKi is −log10 of the Ki, conventionally taken in molar units. By pIC50 is commonly meant the IC50 on a negative log10 scale, so that one unit is a factor of ten.
